Results from patent US5718900A, “Vaccines and methods for preventing and treating Fescue toxicosis in herbivores” (priority 1994, dated 1998).
Counter-ions that a name gives are not always drawn.

Assays:
[1] = tested on: monoclonal antibody 15F3.E5; assay: Cross-reactivity of the monoclonal antibody, competitive ELISA on PLL-lysergic acid coated plates; assay type: binding, mouse; settings: for IC50: antibody diluted 1:50, pre-incubated 1 h with lysergic acid derivative, absorbance at 405 nm, read-out: Molar Concentration at 50% Maximum Absorbance; for cross reaction of 15F3.E5 with lysergic acid derivative: at the concentrations tested
Method: Mouse monoclonal antibody was diluted 1:50 in ELISA diluent. Working dilutions of various lysergic acid derivatives ranging between 1.78×10^-6 to 3.93×10^-15 M were made in 1:10 increments in PBS and 50 uL aliquots were pre-incubated for 1 h with 50 uL of diluted antibody at room temperature. To determine presence of unbound antibody, pre-incubated antibody/lysergic derivatives were transferred to ELISA plates pre-coated with PLL-lysergic acid for 2 h at room temperature. After washing, ELISA plates were treated with 1:500 dilution of rabbit derived antimouse antibody conjugated to alkaline phosphatase:ELISA diluent for 2 h at room temperature and washed. Fifty microliters of alkaline phosphate substrate was added to each well and the characteristic yellow color indicating binding of mouse antibody to the PLL-lysergic acid measured at 405 nm on a Titertek Multiskan Model MCC/340 plate reader.

[2] = tested on: fescue toxicosis; settings: literature report; cited from earlier work
[3] = tested on: Angus steers; settings: literature report; cited from earlier work

Row | Compound | IC50 [1] | cross reaction of 15F3.E5 with lysergic acid derivative [1] | other results
1 | CC(C)C1C(=O)N2CCCC2C2(O)OC(NC(=O)C3CC4c5cccc6[nH]cc(c56)CC4N(C)C3)(C(C)C)C(=O)N12 (stereo not shown) [dihydro-ergocornine] | > 1680 nM | – | –
2 | Cc1ncc(C[n+]2csc(CCO)c2C)c(N)n1 [thiamine] | – | – | effect on symptoms of fescue toxicosis [2]: partially alleviated symptoms
3 | CN1C[C@H](C(=O)N[C@]2(C)O[C@@]3(O)[C@@H]4CCCN4C(=O)[C@H](Cc4ccccc4)N3C2=O)C=C2c3cccc4[nH]cc(c34)C[C@H]21 [Ergotamine tartrate] | 7.69 nM | cross reaction | –
4 | C[C@@H](CO)NC(=O)[C@@H]1C=C2c3cccc4[nH]cc(c34)C[C@H]2N(C)C1 [Ergonovine] | 1.69 nM | cross reaction | –
5 | CN1C[C@H](C(=O)O)C=C2c3cccc4[nH]cc(c34)C[C@H]21 [Lysergic Acid] | 0.0373 nM | cross reaction | –
6 | CC(C)[C@@]1(NC(=O)[C@@H]2C[C@@H]3c4cccc5[nH]cc(c45)C[C@H]3N(C)C2)O[C@@]2(O)[C@@H]3CCCN3C(=O)[C@H](Cc3ccccc3)N2C1=O [dihydro-ergocristine] | > 1780 nM | – | –
7 | CC(C)[C@H]1C(=O)N2CCC[C@H]2[C@]2(O)O[C@@](C)(NC(=O)[C@@H]3C=C4c5cccc6[nH]cc(c56)C[C@H]4N(C)C3)C(=O)N12 [Ergovaline] | – | cross reaction | –
8 | CCN(CC)CCNC(=O)c1cc(Cl)c(N)cc1OC [metoclopramide] | – | – | effect on serum prolactin, weight gains and hair coats [3]: increased serum prolactin and weight gains
9 | CN1C[C@H](CO)C=C2c3cccc4[nH]cc(c34)C[C@H]21 [Lysergol] | – | cross reaction | –
10 | CC(C)C[C@H]1C(=O)N2CCC[C@H]2[C@]2(O)O[C@](NC(=O)[C@@H]3C=C4c5cccc6[nH]c(Br)c(c56)C[C@H]4N(C)C3)(C(C)C)C(=O)N12 [2-bromo-a-ergocryptine] | > 1330 nM | – | –
